# Patent publication US20210355104A1, “ADENOSINE RECEPTOR BINDING COMPOUNDS” (Nikang Therapeuticsm Inc., priority 2018, published 2021)
# Several values for one entry are separate records, joined by “and”; a condition that tells them apart may be missing. Identical values can stand only once.
# Experiments:
# Adenosine A2A receptor [1] = molecular target: T1, Adenosine A2A receptor (Homo sapiens, UniProt P29274); test: Adenosine A2A receptor competitive binding assay (Tag-lite HTRF); details: Tag-lite adenosine A2A receptor ligand binding
# T1 sequence (P29274 whole entry): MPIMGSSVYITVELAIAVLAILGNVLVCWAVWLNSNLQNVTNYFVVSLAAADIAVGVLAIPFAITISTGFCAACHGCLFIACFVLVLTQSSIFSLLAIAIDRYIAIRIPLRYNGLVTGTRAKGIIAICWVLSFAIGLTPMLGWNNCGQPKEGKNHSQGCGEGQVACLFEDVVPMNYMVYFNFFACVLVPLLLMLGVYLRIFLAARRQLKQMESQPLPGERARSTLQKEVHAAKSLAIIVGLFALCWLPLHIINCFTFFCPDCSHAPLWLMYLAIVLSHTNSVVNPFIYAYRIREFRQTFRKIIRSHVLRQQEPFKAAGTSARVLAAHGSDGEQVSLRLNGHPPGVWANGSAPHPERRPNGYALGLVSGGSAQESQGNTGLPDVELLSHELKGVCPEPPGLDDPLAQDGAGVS
# Experimental: Adenosine A2A Receptor Competitive Binding Assay
# The Tag-lite adenosine A2A receptor ligand binding assay is a homogeneous alternative to radioligand binding assay and developed by Cisbio (Bedford, Mass.). We carried out this assay following Cisbio's instructions with minor modification. Pre-transfected, fluorescent donor-labelled cells (Cisbio Cat#: C1TT1A2A, 200 testes) was stored at −80° C. and thawed right before use. Cells were washed once with 5 ml TLB and gently resuspended in 2 ml TLB. 4 μl suspended cells was dispensed into each well of white low-volume 384-well plate (Greiner Bio-One). Serial dilutions of compounds were prepared in Tag-lite buffer (TLB, Cisbio Cat #: LABMED) to a DMSO concentration of 0.6%. After adding 4 μl of compound dilutions to each well, 4 μl60 nM Adenosine A2A receptor red antagonist fluorescent ligand (Cisbio Cat #: L0058RED) was dispensed to each well. The 384-well assay plate was centrifuged briefly and incubated at room temperature for 2 h. HTRF signals were measured using CIARIOstar plate reader (BMG Labtech).
# Adenosine A2A receptor [2] = molecular target: T1, Adenosine A2A receptor; test: cAMP assay in 293A cells stably expressing the adenosine A2A receptor (CGS21680 stimulation, HTRF); assay type: cell-based; set-up: expressed in transfected cells; host or cells: 293A cells (Invitrogen, Cat# R705-07) infected with A2A-expressing lentivirus (custom packaged by Biosettia), puromycin selected; details: 293A-A2AR cells, 0.1% BSA
# [3] = 2 h room temperature, values separated by / are repeat determinations
# [4] = 8 nM CGS, values separated by / are repeat determinations, read-out: cAMP (nM) 0.1% BSA, 8 nM CGS
# [5] = 1 uM CGS, read-out: cAMP (nM) 0.1% BSA, 1 uM CGS
smiles,measurement,setting,value
"Cc1cc(-c2c(OCCN(C)c3ccccc3)nc(N)nc2-c2ccc(F)cc2)cc(C(F)F)n1 [Example 87, 5-(2-(difluoromethyl)-6-methylpyridin-4-yl)-4-(4-fluorophenyl)-6-(2-(methyl(phenyl)amino)ethoxy)pyrimidin-2-amine]",IC50,Adenosine A2A receptor [1]; [3],18 nM
same,IC50,Adenosine A2A receptor [2]; [4],2.2 nM
"Cc1cc(-c2c(OCc3ccncn3)nc(N)nc2-c2ccc(F)cc2)cc(C(F)F)n1 [Example 218, 5-(2-(difluoromethyl)-6-methylpyridin-4-yl)-4-(4-fluorophenyl)-6-(pyrimidin-4-ylmethoxy)pyrimidin-2-amine]",IC50,Adenosine A2A receptor [1]; HTRF,1.7 nM
same,IC50,Adenosine A2A receptor [2]; [5],76 nM and 48 nM
"Cc1cc(-c2c(OCC(=O)N(C)C)nc(N)nc2-c2ccccc2)cc(C(F)(F)F)n1 [Example 2, 2-((2-amino-5-(2-methyl-6-(trifluoromethyl)pyridin-4-yl)-6-phenylpyrimidin-4-yl)oxy)-N,N-dimethylacetamide]",IC50,Adenosine A2A receptor [1]; [3],30.5 nM
same,IC50,Adenosine A2A receptor [2]; [4],6.8 nM and 3.4 nM
"CCNC(=O)NCCOc1nc(N)nc(-c2ccc(F)cc2)c1-c1cc(C)nc(C(F)F)c1 [Example 60, 1-(2-((2-amino-5-(2-(difluoromethyl)-6-methylpyridin-4-yl)-6-(4-fluorophenyl)pyrimidin-4-yl)oxy)ethyl)-3-ethylurea]",IC50,Adenosine A2A receptor [1]; [3],3.6 nM and 8.8 nM
same,IC50,Adenosine A2A receptor [2]; [4],1.7 nM and 2.2 nM
"Cc1cc(-c2c(OCc3nccn3CS(C)(=O)=O)nc(N)nc2-c2ccc(F)cc2)cc(C(F)F)n1 [Example 215, 5-(2-(difluoromethyl)-6-methylpyridin-4-yl)-4-(4-fluorophenyl)-6-((1-((methylsulfonyl)methyl)-1H-imidazol-2-yl)methoxy)pyrimidin-2-amine]",IC50,Adenosine A2A receptor [1]; HTRF,9.7 nM
same,IC50,Adenosine A2A receptor [2]; [5],965 nM
"Cc1cc(-c2c(OCC(C)(C)C(=O)O)nc(N)nc2-c2ccc(F)cc2)cc(C(F)F)n1 [Example 61, 3-((2-amino-5-(2-(difluoromethyl)-6-methylpyridin-4-yl)-6-(4-fluorophenyl)pyrimidin-4-yl)oxy)-2,2-dimethylpropanoic acid]",IC50,Adenosine A2A receptor [1]; [3],280 nM
same,IC50,Adenosine A2A receptor [2]; [4],233 nM
"Cc1cc(-c2c(OCCN3CCN(c4ccc(S(C)(=O)=O)cc4)CC3)nc(N)nc2-c2ccc(F)cc2)cc(C(F)F)n1 [Example 56, 5-(2-(difluoromethyl)-6-methylpyridin-4-yl)-4-(4-fluorophenyl)-6-(2-(4-(4-(methylsulfonyl)phenyl)piperazin-1-yl)ethoxy)pyrimidin-2-amine]",IC50,Adenosine A2A receptor [1]; [3],8.9 nM
same,IC50,Adenosine A2A receptor [2]; [4],3.6 nM
"Cc1cc(-c2c(OCC(=O)Nc3ccccc3)nc(N)nc2-c2ccc(F)cc2)cc(C(F)F)n1 [Example 92, 2-((2-amino-5-(2-(difluoromethyl)-6-methylpyridin-4-yl)-6-(4-fluorophenyl)pyrimidin-4-yl)oxy)-N-phenylacetamide]",IC50,Adenosine A2A receptor [1]; [3],48 nM
same,IC50,Adenosine A2A receptor [2]; [4],6.4 nM
"CCN(CC)C(=O)COc1nc(N)nc(-c2ccc(F)cc2)c1-c1cc(C)nc(C(F)F)c1 [Example 28, 2-([2-amino-5-[2-(difluoromethyl)-6-methylpyridin-4-yl]-6-(4-fluorophenyl)pyrimidin-4-yl]oxy)-N,N-diethylacetamide]",IC50,Adenosine A2A receptor [1]; [3],7.56 nM
same,IC50,Adenosine A2A receptor [2]; [4],0.44 nM and 1.3 nM
"CCN(CC)C(=O)COc1nc(N)nc(-c2ccco2)c1-c1cc(C)nc(C(F)(F)F)c1 [Example 11, 2-((2-amino-6-(furan-2-yl)-5-(2-methyl-6-(trifluoromethyl)pyridin-4-yl)pyrimidin-4-yl)oxy)-N,N-diethylacetamide]",IC50,Adenosine A2A receptor [1]; [3],7.21 nM
same,IC50,Adenosine A2A receptor [2]; [4],3.2 nM
"COC(=O)N1CCN(CCOc2nc(N)nc(-c3ccc(F)cc3)c2-c2cc(C)nc(C(F)F)c2)CC1 [Example 51, methyl 4-(2-((2-amino-5-(2-(difluoromethyl)-6-methylpyridin-4-yl)-6-(4-fluorophenyl)pyrimidin-4-yl)oxy)ethyl)piperazine-1-carboxylate]",IC50,Adenosine A2A receptor [1]; [3],10 nM
same,IC50,Adenosine A2A receptor [2]; [4],3.9 nM
"CNC(=O)COc1nc(N)nc(-c2ccc(F)cc2)c1-c1cc(C)nc(C(F)F)c1 [Example 32, 2-((2-amino-5-(2-(difluoromethyl)-6-methylpyridin-4-yl)-6-(4-fluorophenyl)pyrimidin-4-yl)oxy)-N-methylacetamide]",IC50,Adenosine A2A receptor [1]; [3],13.9 nM
same,IC50,Adenosine A2A receptor [2]; [4],6.1 nM and 6.7 nM
"CCNC(=O)COc1nc(N)nc(-c2ccccc2)c1-c1cc(C)nc(C(F)(F)F)c1 [Example 29, 2-([2-amino-5-[2-methyl-6-(trifluoromethyl)pyridin-4-yl]-6-phenylpyrimidin-4-yl]oxy)-N-ethylacetamide]",IC50,Adenosine A2A receptor [1]; [3],7.74 nM
same,IC50,Adenosine A2A receptor [2]; [4],2 nM and 2.7 nM
"Cc1cc(-c2c(OCc3nccn3CC(C)(C)O)nc(N)nc2-c2ccc(F)cc2)cc(C(F)F)n1 [Example 175, 1-(2-(((2-amino-5-(2-(difluoromethyl)-6-methylpyridin-4-yl)-6-(4-fluorophenyl)pyrimidin-4-yl)oxy)methyl)-1H-imidazol-1-yl)-2-methylpropan-2-ol]",IC50,Adenosine A2A receptor [1]; [3],15 nM
same,IC50,Adenosine A2A receptor [2]; [4],19 nM
CNS(=O)(=O)NCCOc1nc(N)nc(-c2ccc(F)cc2)c1-c1cc(C)nc(C(F)F)c1 [Example 115],IC50,Adenosine A2A receptor [1]; [3],19 nM
same,IC50,Adenosine A2A receptor [2]; [4],9.9 nM
same,IC50,"Adenosine A2A receptor [2]; 1 uM CGS, values separated by / are repeat determinations, read-out: cAMP (nM) 0.1% BSA, 1 uM CGS",820 nM
"CNC(=O)NCCOc1nc(N)nc(-c2ccc(F)cc2)c1-c1cc(C)nc(C(F)F)c1 [Example 113, 1-(2-((2-amino-5-(2-(difluoromethyl)-6-methylpyridin-4-yl)-6-(4-fluorophenyl)pyrimidin-4-yl)oxy)ethyl)-3-methylurea]",IC50,Adenosine A2A receptor [1]; [3],8.9 nM
same,IC50,Adenosine A2A receptor [2]; [4],16 nM and 7.5 nM
"Cc1cc(-c2c(OCC(=O)NC3CCN(C)CC3)nc(N)nc2-c2ccc(F)cc2)cc(C(F)F)n1 [Example 44, 2-((2-amino-5-(2-(difluoromethyl)-6-methylpyridin-4-yl)-6-(4-fluorophenyl)pyrimidin-4-yl)oxy)-N-(1-methylpiperidin-4-yl)acetamide]",IC50,Adenosine A2A receptor [1]; [3],1210 nM
"Cc1cc(-c2c(OCC(=O)N(C)C3COC3)nc(N)nc2-c2ccc(F)cc2)cc(C(F)F)n1 [Example 101, 2-((2-amino-5-(2-(difluoromethyl)-6-methylpyridin-4-yl)-6-(4-fluorophenyl)pyrimidin-4-yl)oxy)-N-methyl-N-(oxetan-3-yl)acetamide]",IC50,Adenosine A2A receptor [1]; [3],70 nM
"CCN(CC)C(=O)CNc1nc(N)nc(-c2ccccc2)c1-c1cc(C)nc(C(F)(F)F)c1 [Example 30, 2-((2-amino-5-(2-methyl-6-(trifluoromethyl)pyridin-4-yl)-6-phenylpyrimidin-4-yl)amino)-N,N-diethylacetamide]",IC50,Adenosine A2A receptor [1]; [3],9.95 nM
"Cc1cc(-c2c(OCC3(O)CCOCC3)nc(N)nc2-c2ccc(F)cc2)cc(C(F)F)n1 [Example 104, 4-(((2-amino-5-(2-(difluoromethyl)-6-methylpyridin-4-yl)-6-(4-fluorophenyl)pyrimidin-4-yl)oxy)methyl)tetrahydro-2H-pyran-4-ol]",IC50,Adenosine A2A receptor [1]; [3],> 1000 nM
"Cc1cc(-c2c(OCC(=O)NCCCS(C)(=O)=O)nc(N)nc2-c2ccc(F)cc2)cc(C(F)F)n1 [Example 50, 2-((2-amino-5-(2-(difluoromethyl)-6-methylpyridin-4-yl)-6-(4-fluorophenyl)pyrimidin-4-yl)oxy)-N-(3-(methylsulfonyl)propyl)acetamide]",IC50,Adenosine A2A receptor [1]; [3],535 nM
"Cc1cc(-c2c(OCc3nnn(CC4CC4)n3)nc(N)nc2-c2ccc(F)cc2)cc(C(F)F)n1 [Example 220, 4-((2-(cyclopropylmethyl)-2H-tetrazol-5-yl)methoxy)-5-(2-(difluoromethyl)-6-methylpyridin-4-yl)-6-(4-fluorophenyl)pyrimidin-2-amine]",IC50,Adenosine A2A receptor [1]; HTRF,14 nM
